# Reference: US20250099517A1, “Use of Lactobacillus reuteri Y7 strain for prevention or treatment of ocular diseases” (Taipei Medical University, priority 2023, published 2025)
# System: Occludin, Claudin-1, ZO-1 gene expression
# Experiment: q-PCR of tight junction gene expression in eyes
# Assay type: in vivo, C57BL/6 mice
# Settings: for gene expressions of Occludin compared with the LU group: p<0.05
# Protocol: The C57BL/6 mice, which weighed between 23 and 25 g, were divided into seven groups randomly. In each group, the six mice induced by blue light successfully were incorporated in experiments. The samples dissolved in deuterium-depleted water (DDW) were fed to mice through oral tubes once a day. The groups were named and introduced as follows: • (1) Solvent not classified group (NC): The mice were fed with 0.2 ml deuterium-depleted water (DDW) through tubes; • (2) Negative control group (Blue light (BL)): The mice were fed with 0.2 ml deuterium-depleted water (DDW) through tubes and exposed to blue light; • (3) Low-dosage Y7 probiotics group […]): The mice were fed with low-dosage Y7 probiotics (probiotic counts of 1.0×10^8 CFU/ml dissolved in 0.2 ml DDW per day) and exposed to blue light; • (4) High-dosage Y7 probiotics group […]): The mice were fed with high-dosage Y7 probiotics (probiotic counts of 1.0×10^9 CFU/ml dissolved in 0.2 ml DDW per day) and exposed to blue light; • (5) Positive control group (lutein (LU)): The mice were fed with lutein and exposed to blue light. The recommended human dosage of lutein is 30 mg. The mouse cage (48×25×20 cm) placed inside a stainless ventilated box was equipped with blue light boards as blue light sources around and above. In the experiment of animals exposed to blue light, six-week-old mice staying in the mouse cage were fed with drinking water as well as fodders and exposed to 400 Lux blue light illumination under the light-dark cycle of 12-hour light and 12-hour dark. The experiment was aimed at causing mice' late dry macular disease induced by chronic light injuries for simulating a human being's macular disease after long-term exposure to short-wavelength blue light from 3C products in daily life. The eyes of a mouse sacrificed were collected for the following purposes. RNAs extracted with Trizol were reverse-transcribed to cDNAs. Then, the real-time quantitative polymerase chain reaction was enabled to detect gene expressions related to inflammatory hormones and apoptosis such as TNF-α, IL-1B, IL-6, Bax, Bcl-2, Caspase1, Caspase3 and NLRP3 for comparisons with the endogenous level of β-actin, GAPDH or 18S rRNA. [table] The gene expressions related to tight junctions of mice' eyes, buccal mucosas and colons after induction of blue light were analyzed through q-PCR and shown in FIG. 10a, FIG. 10d and FIG. 10g for Occludin, FIG. 10b, FIG. 10e and FIG. 10h for Claudin-1 and FIG. 10c, FIG. 10f and FIG. 10i for ZO-1, respectively.
substance,measurement,setting,value
Lactobacillus reuteri Y7 [Y7 probiotics],gene expressions of Claudin-1 compared with the LU group,Y7H high-dosage group,descending trend
same,gene expressions of ZO-1 compared with the LU group,Y7H high-dosage group,descending trend
same,gene expressions of Occludin compared with the LU group,Y7H high-dosage group,decreased significantly
same,gene expressions of Claudin-1 compared with the LU group,Y7L low-dosage group,descending trend
same,gene expressions of ZO-1 compared with the LU group,Y7L low-dosage group,descending trend
same,gene expressions of Occludin compared with the LU group,Y7L low-dosage group,decreased significantly
